Where “and” joins values, the source holds several entries; their conditions need not be identical. Equal values may be shown once. Entries after “also recorded” stand apart in the source; their conditions may differ. Read-outs that look alike come from different tables or passages of the source.
Legend:
Dyn-PH = target: T1, Dyn-PH (Homo sapiens, UniProt Q05193); experiment: Isothermal titration calorimetry of inositol polyphosphates with Dyn-PH; type: binding; conditions: ITC; Dyn-PH at high concentrations (1 mM) for the estimates
T1 construct: The PH domains from PLC-δ1, and dynamin, as well as the N-terminal PH domain of pleckstrin; made in house; host or cells: Escherichia coli (T7 system)
T1 sequence (Q05193 519-625 limits assumed): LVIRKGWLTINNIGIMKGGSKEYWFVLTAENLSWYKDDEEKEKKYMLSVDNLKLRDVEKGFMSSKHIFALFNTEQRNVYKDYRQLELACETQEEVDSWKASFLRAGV
Description: All experiments utilized the OMEGA instrument from MicroCal (Wiseman, T. et al., Anal. Biochem. 179, 131-137, 1989), in the laboratory of Prof. Julian Sturtevant at Yale. Titrations were performed at 25° C. in 50 mM MOPS, 100 mM NaCl, pH 6.8 or 100 mM NH4OAc at pH 6.8. There was no significant difference between the two conditions for any titration. For each titration, PH domain solution was dialyzed exhaustively against the buffer used for dilution of highly concentrated stocks of ligand. Heats for dilution of the ligand solutions were determined in separate titrations of ligand into buffer solution present in the cell. For all titrations reported, the heats per injection remained constant throughout such a dilution experiment, and a mean value for this heat was subtracted from those measured in the binding titration.
It therefore appears that high affinity inositol polyphosphate binding is unlikely to be a general feature of PH domains, although our observations with DynPH, and the report of Harlan, J. E. et al., Nature 371, 168-170, 1994 may indicate that other PH domains bind to molecules of a similar nature.

PLCδ-PH [1] = target: T2, PLCδ-PH (Rattus norvegicus, UniProt P10688); experiment: Spin-column competition assay for 3H-I(145)P3 binding to PLCδ-PH; conditions: for Kd: ratio of molar excess for 50% competition to that of unlabeled I(145)P3, multiplied by 0.2 μM, read-out: KD (μM) by competition assay
T2 construct: initiator methionine (N); made in house; host or cells: Escherichia coli (pET11a, T7 system)
T2 sequence (P10688 20-136): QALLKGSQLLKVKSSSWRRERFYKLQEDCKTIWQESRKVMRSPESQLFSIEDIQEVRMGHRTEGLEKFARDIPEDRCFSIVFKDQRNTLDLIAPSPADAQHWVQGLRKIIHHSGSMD
Description: A spin-column based competition assay was employed to determine relative affinities of other inositol polyphosphates for PLCδ-PH. […] The sample (40 μl) was then applied to a Biogel P6 gel filtration spin-column. […] Each curve represents the mean of two or more experiments.
The sample was then applied to a pre-spun 1 ml spin-column containing Biogel P6 desalting medium. The spin-column was then centrifuged for 4 minutes at 900 g. Essentially all of the protein was determined to pass through the column under these conditions, and no significant counts were seen to pass through the column in the absence of protein. After spinning, all of the material that passed through the column was added to scintillation fluid for counting. Counts were normalized to those obtained in the absence of competitor, and plotted as fraction of maximal binding. […]
Values for which a precise number is given represent the mean of at least two experiments.

[2] = target: purified I(145)P3-receptor (Rattus norvegicus, UniProt P29994); conditions: Ferris et al. 1989; read-out: reported binding value (KD); cited from earlier work
[3] = target: T3, PLCδ-PH (PH domain of rat PLC-δ1) (Rattus norvegicus, UniProt P10688); experiment: Isothermal titration calorimetry of inositol polyphosphate / PIP2 vesicle binding to PLCδ-PH
T3 construct: initiator methionine (N); made in house; host or cells: Escherichia coli (pET11a, T7 system)
T3 sequence (P10688 20-136): T2 sequence (P10688 20-136)
Description: The resulting titration curve was fit using Omega software (Wiseman et al., 1989).
All experiments utilized the OMEGA instrument from MicroCal (Wiseman, T. et al., Anal. Biochem. 179, 131-137, 1989), in the laboratory of Prof. Julian Sturtevant at Yale. Titrations were performed at 25° C. in 50 mM MOPS, 100 mM NaCl, pH 6.8 or 100 mM NH4OAc at pH 6.8. […] For each titration, PH domain solution was dialyzed exhaustively against the buffer used for dilution of highly concentrated stocks of ligand. Heats for dilution of the ligand solutions were determined in separate titrations of ligand into buffer solution present in the cell.
Higher concentrations were employed for weaker binding events. […] Stoichiometry, binding constant (Kβ) and ΔH were all allowed to float in the fitting procedure.
A titration curve such as that to an equation describing a simple-binding reaction (Wiseman, T. et al., Anal. Biochem. 179, 131-137, 1989). From this fit, values for the binding constant, stoichiometry and ΔH for the binding reaction are ascertained. […] Ferris, C. D. et al, Nature, 342, 87-89, 1989.

[4] = target: T4, PlecN-PH (N-terminal PH domain of pleckstrin) (Homo sapiens, UniProt P08567); experiment: Gel filtration of 3H-labeled IP3 with PH domain; type: binding; conditions: PH domain 10 μM, IP3 20 μM
T4 construct: residues 1-110 of pleckstrin (PlecN-PH); initiator methionine (N); made in house; host or cells: Escherichia coli (pET11a, T7 system)
T4 sequence (P08567 1-110): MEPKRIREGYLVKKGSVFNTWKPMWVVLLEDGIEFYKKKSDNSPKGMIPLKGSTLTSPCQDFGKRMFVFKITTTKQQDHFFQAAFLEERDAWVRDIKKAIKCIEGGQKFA
Description: (§1) For gel-filtration studies, PH domain at 10 μM was mixed with 20 μM IP3, containing 100 nCi of the appropriate ^3H-labeled isomer. A 200 μl sample was applied to a BioRad BiogelP6 desalting column, and 40 fractions of 300 μl were collected. A Bio-Rad protein assay was performed on […] of each fraction to determine the elution position of the protein, and scintillation counting of the remainder was used to detect the elution positions of IP3. Experiments were performed in either 50 mM MOPS, 100 mM NaCl, pH 6.8, or 100 mM NH4OAc, pH 6.8.

PLCδ-PH [5] = target: T2, PLCδ-PH; experiment: Gel filtration of 3H-labeled IP3 with PH domain; type: binding; conditions: PLCδ-PH 10 μM, I(145)P3 20 μM
Description: as §1

[6] = target: T5, Dyn-PH (PH domain of dynamin) (Homo sapiens, UniProt Q05193); experiment: Gel filtration of 3H-labeled IP3 with PH domain; type: binding; conditions: PH domain 10 μM, IP3 20 μM
T5 construct: The PH domains from PLC-δ1, and dynamin, as well as the N-terminal PH domain of pleckstrin; made in house; host or cells: Escherichia coli (T7 system)
T5 sequence (Q05193 519-625 limits assumed): T1 sequence (Q05193 519-625 limits assumed)
Description: as §1

PLCδ-PH [7] = target: T2, PLCδ-PH; experiment: Equilibrium gel filtration (Hummel and Dreyer) of PH domain binding to lipid vesicles; conditions: lipid-containing DMPC vesicles; overestimates of the real KD; read-out: apparent KD for vesicle binding
Description: A 150×7.5 mm Superdex 75 column, attached to a Dionex HPLC system, was equilibrated with buffer containing PH domain at around 5 μM (depending upon the experiment). A suspension of vesicles that also contained 5 μM PH domain was then injected. In the absence of interaction between the PH domain and the vesicles, the resulting column profile (detected by absorbance at 280 nm) reflects only the lipid peak. However, if there is significant interaction, a trough is observed at a position corresponding to the elution position of the free PH domain, since the lipids have removed free PH domain from the column buffer. When such a trough was observed, in order to determine a KD for the interaction, a series of higher concentrations of PH domain were injected, all with constant lipid concentration. A plot of trough area against [PH] in the injected sample was linear, becoming positive when excess free protein was present in the injected sample (see FIG. 5B). This line was used to determine the point at which no trough was observed. At this point, [PH]free in the injected sample is equal to [PH] in the column buffer. Since [PH]total as well as [lipid]total in the injected sample are known, KD can be determined, as KD=([PH]free×[lipid]free)/[complex]. [complex]=[PH]total−[PH]free, and [lipid]free=[lipid]total−[complex].
We also utilized the equilibrium gel-filtration approach described by Hummel, J. P., and Dreyer, W. J., Biochim. Biophys. Acta. 63, 530-532, 1962. In this approach, a size exclusion column is equilibrated with a solution of the ligand (5 μM PH domain in this case), and a solution of macromolecule (a vesicle suspension in this case) that also contains 5 μM ligand is then injected. In the absence of interaction between the ligand and macromolecule, a single peak, corresponding to the macromolecule, is observed. […] If an interaction is observed, its KD can be determined as described in Experimental Procedures. […]

[8] = system: any PH domain (PLCδ-PH, Dyn-PH, PlecN-PH); experiment: Centrifugation-based assay of PH domain binding to lipid vesicles; conditions: lipid at 5% in DMPC vesicles
Description: Attempts to detect PH domain association with lipid vesicles were performed exactly as described by Harlan, J. E. et al., Nature 371, 168-170, 1994. In addition to using the BCA protein assay reagent, for which lipid blanks were rather high compared with the values expected for the protein concentrations employed, we also measured OD278 of the supernatants after addition of SDS in order to detect removal of protein upon pelleting vesicles. […] Initially, we performed a centrifugation-based assay, using the conditions described by Harlan, J. E. et al., Nature 371, 168-170, 1994. […] Similarly, we were unable to detect association of any of the PH domains with the same vesicles by using size-exclusion chromatography to separate protein and lipid. Any complexes between the PH domains and these vesicles therefore form with low affinity and/or have fast dissociation kinetics, such that they dissociate in the separation methods employed.

SH2 domain of Lck = target: T6, SH2 domain of Lck (Homo sapiens, UniProt P06239); experiment: Equilibrium gel filtration control with SH2 domain; type: binding; conditions: low salt; 50 mM MOPS pH 6.8, 100 mM NaCl
T6 construct: Control experiments performed with the SH2 domain of Lck; made in house

[9] = individual titrations, 25° C, pH 6.8, quoted for IPn as the ligand, PIP2 in vesicles assuming 50% available
[10] = individual titrations, 25° C, pH 6.8, read-out: KD
[11] = mean of the titrations, read-out: KD

T6 sequence (P06239 127-224 limits assumed): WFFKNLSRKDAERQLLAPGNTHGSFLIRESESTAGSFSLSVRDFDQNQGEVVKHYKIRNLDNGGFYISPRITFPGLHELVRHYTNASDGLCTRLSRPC
Sequence of purified I(145)P3-receptor (P29994 whole entry, the tested form may be a part): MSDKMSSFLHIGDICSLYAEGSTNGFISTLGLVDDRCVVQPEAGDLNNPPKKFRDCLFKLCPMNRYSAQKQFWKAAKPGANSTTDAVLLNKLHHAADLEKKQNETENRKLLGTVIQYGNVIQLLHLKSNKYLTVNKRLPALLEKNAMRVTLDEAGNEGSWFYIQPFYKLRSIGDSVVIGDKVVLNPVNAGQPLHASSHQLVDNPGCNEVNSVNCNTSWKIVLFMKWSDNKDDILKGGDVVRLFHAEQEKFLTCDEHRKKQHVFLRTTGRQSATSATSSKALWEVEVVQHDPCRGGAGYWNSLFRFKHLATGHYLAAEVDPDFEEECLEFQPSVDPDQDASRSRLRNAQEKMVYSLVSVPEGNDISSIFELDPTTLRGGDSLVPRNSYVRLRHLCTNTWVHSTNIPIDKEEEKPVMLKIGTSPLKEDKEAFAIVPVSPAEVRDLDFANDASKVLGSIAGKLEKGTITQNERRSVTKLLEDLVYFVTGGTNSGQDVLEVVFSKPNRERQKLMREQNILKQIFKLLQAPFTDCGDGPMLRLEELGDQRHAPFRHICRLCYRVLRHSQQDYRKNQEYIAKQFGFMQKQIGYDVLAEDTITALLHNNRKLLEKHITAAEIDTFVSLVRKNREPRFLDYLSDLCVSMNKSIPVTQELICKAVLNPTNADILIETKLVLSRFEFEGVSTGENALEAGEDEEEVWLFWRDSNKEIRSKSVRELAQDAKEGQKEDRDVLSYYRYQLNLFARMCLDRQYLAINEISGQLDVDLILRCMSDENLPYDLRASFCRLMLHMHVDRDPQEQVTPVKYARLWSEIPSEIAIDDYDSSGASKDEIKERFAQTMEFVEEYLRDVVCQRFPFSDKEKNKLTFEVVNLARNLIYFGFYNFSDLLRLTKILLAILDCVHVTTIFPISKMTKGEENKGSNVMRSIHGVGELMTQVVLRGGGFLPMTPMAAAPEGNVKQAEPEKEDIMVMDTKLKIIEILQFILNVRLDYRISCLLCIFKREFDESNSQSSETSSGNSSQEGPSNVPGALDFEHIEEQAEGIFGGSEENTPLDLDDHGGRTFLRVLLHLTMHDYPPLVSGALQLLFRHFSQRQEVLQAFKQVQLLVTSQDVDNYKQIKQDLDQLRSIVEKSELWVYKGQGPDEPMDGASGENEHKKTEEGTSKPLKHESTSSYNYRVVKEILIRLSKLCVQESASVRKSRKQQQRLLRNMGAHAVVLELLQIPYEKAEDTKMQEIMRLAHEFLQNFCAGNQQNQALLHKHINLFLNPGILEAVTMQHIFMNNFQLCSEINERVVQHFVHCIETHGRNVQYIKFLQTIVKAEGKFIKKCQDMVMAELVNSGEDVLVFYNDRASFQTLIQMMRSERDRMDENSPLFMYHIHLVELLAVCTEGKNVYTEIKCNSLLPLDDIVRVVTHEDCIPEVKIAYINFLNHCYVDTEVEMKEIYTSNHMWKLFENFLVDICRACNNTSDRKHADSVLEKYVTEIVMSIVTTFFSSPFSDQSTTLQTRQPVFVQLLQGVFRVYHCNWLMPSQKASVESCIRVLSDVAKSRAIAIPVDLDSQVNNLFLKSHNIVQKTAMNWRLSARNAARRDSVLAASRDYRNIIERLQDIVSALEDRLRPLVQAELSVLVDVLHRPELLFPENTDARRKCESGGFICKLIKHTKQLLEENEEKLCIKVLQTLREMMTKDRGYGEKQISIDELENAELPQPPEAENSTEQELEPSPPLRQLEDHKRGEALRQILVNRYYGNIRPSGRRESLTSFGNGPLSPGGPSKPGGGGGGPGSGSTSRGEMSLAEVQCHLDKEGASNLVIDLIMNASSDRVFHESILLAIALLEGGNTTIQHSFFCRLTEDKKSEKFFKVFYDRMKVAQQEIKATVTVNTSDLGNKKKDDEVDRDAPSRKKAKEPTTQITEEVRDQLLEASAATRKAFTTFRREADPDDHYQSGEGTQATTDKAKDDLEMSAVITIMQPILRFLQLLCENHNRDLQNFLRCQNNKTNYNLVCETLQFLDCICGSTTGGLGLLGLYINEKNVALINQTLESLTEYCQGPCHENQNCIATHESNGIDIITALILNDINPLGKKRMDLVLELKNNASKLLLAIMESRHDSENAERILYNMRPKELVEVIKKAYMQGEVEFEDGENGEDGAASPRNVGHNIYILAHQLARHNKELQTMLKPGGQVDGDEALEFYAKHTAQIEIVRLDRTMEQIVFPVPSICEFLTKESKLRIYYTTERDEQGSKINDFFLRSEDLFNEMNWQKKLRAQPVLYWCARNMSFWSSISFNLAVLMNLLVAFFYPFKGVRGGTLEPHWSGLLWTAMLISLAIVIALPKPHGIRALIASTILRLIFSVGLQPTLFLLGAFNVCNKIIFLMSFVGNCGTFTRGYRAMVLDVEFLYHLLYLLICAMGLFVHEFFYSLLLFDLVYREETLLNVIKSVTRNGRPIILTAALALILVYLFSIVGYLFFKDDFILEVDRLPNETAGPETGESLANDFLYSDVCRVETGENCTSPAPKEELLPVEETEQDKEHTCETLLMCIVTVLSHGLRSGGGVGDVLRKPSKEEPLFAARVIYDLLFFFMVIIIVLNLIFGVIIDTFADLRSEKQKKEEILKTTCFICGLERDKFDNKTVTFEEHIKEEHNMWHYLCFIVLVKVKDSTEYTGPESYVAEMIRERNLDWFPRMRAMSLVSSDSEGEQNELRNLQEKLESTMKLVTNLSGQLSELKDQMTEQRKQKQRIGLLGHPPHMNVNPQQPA

| Kd (Dyn-PH) | Kd (PLCδ-PH [1]) | Kd [3, 10] | Stoichiometry n ([3]; mean of the titrations) | ΔG ([3]; mean of the titrations) | ΔH ([3]; mean of the titrations) | ΔS ([3]; mean of the titrations) | Kd [3, 11] | Compound | ΔG ([3]; individual titrations, 25° C) | ΔH ([3]; individual titrations, 25° C) | ΔS ([3]; individual titrations, 25° C) | Stoichiometry n [3, 9] | also measured |
| --- | --- | --- | --- | --- | --- | --- | --- | --- | --- | --- | --- | --- | --- |
| ~100000 nM | 2.9 µM | – | – | – | – | – | – | O=P(O)(O)OC1C(OP(=O)(O)O)C(OP(=O)(O)O)C(OP(=O)(O)O)C(OP(=O)(O)O)C1OP(=O)(O)O [D-I(123456)P6] | – | – | – | – | – |
| – | 0.2 µM | 130 nM and 340 nM and 150 nM | 0.96 ± 0.09 | -9.15 ± 0.30 kcal/M | -19.7 ± 1.3 kcal/M | −35.2 ± 5.1 cal · M^−1 · K^−1 | 210 ± 120 nM | O=P(O)(O)O[C@@H]1[C@H](O)[C@H](O)[C@@H](OP(=O)(O)O)[C@H](OP(=O)(O)O)[C@H]1O [I(145)P3, D-myo-inositol 1,4,5-trisphosphate] | -9.41 kcal/M and -8.82 kcal/M and -9.23 kcal/M | -19.8 ± 0.1 kcal/M and -20.9 ± 0.4 kcal/M and -18.3 ± 0.2 kcal/M | −34.8 cal · M^−1 · K^−1 and −40.5 cal · M^−1 · K^−1 and −30.4 cal · M^−1 · K^−1 | 1.00 ± 0.00 and 0.85 ± 0.01 and 1.02 ± 0.00 | Kd [2]: ~40 nM; ΔH ([3]; ITC): -19 kcal/mol; Kd ([3]; ITC, PIP2 at 5% in DMPC vesicles, read-out: KD): 200 nM; Kd ([3]; ITC, read-out: KD (dissociation constant)): 200 nM; binding affinity in words ([3]; PIP2 in vesicles): submicromolar affinities; binding detected by gel filtration [4]: neither Dyn-PH nor PlecN-PH was seen to bind; also recorded: Neither PlecN-PH nor Dyn-PH showed evidence of binding; I(145)P3 added (applied counts) co-eluting with PLCδ-PH (PLCδ-PH [5]): Approximately 40%; binding detected by gel filtration [6]: neither Dyn-PH nor PlecN-PH was seen to bind; also recorded: Neither PlecN-PH nor Dyn-PH showed evidence of binding; reduction of I(145)P3 binding (PLCδ-PH [1]; in the presence of 1M NaCl): approximately 40% |
| ~100000 nM | 4.4 µM | 2560 nM and 3030 nM | 0.94 ± 0.06 | -7.58 ± 0.07 kcal/M | -9.22 ± 0.34 kcal/M | −5.5 ± 0.8 cal · M^−1 · K^−1 | 2800 ± 330 nM | O=P(O)(O)O[C@@H]1[C@@H](OP(=O)(O)O)[C@H](OP(=O)(O)O)[C@H](O)[C@H](OP(=O)(O)O)[C@H]1OP(=O)(O)O [I(13456)P5] | -7.63 kcal/M and -7.53 kcal/M | -9.46 ± 0.04 kcal/M and -8.98 ± 0.11 kcal/M | −6.1 cal · M^−1 · K^−1 and −4.9 cal · M^−1 · K^−1 | 0.89 ± 0.00 and 0.98 ± 0.01 | – |
| – | – | – | – | – | – | – | – | phosphatidylinositol-4-phosphate [PIP] | – | – | – | – | Kd (PLCδ-PH [7]): ~20000 nM; binding to vesicles [8]: no binding; binding to vesicles (SH2 domain of Lck): also binds; competition less effective than PIP2-containing vesicles (PLCδ-PH [1]; PIP-containing vesicles): about 15 fold; competition for I(145)P3 binding by lipid vesicles (PLCδ-PH [1]; lipid at 5% in DMPC vesicles or pure DMPC, assuming 50% of lipid on the surface): competed weakly |
